# Target: T1, Recombinant human LTC4 synthase (Homo sapiens, UniProt Q16873)
# T1 construct: made in house; host or cells: Pichia pastoris
# T1 sequence (Q16873 1-150): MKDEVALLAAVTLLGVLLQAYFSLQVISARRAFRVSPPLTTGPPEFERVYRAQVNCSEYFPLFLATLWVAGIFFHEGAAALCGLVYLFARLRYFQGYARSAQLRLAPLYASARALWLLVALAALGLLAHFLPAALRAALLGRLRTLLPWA
# Test: LTC4 synthase in vitro assay (HTRF detection of LTC4)
# Assay type: biochemical
# Conditions: compound concentration 3 μM; HTRF method
# Procedure: Alternatively HTRF detection of LTC4 can be used:
# In the assay, LTC4 synthase catalyses the reaction where the substrate LTA4 is converted to LTC4. Recombinant human LTC4 synthase is expressed in Piccia pastoralis and the purified enzyme is dissolved in 25 mM Tris-buffer pH 7.8 supplemented with 0.1 mM glutathione (GSH) and stored at −80° C. The assay is performed in phosphate buffered saline (PBS) pH 7.4 and 5 mM GSH in 384-well plates.
# The following is added chronologically to each well: • 1. 48 μl LTC4 synthase in PBS with 5 mM GSH. The total protein concentration in this solution is 0.5 μg/ml. • 2. […] Incubation of the plate at room temperature for 10 minutes. • 4. 1 μl LTA4 (final conc. 2.5 μM). • 5. Incubation of the plate at room temperature for 5 minutes. • 6. 10 μl of the incubation mixture is analysed using homogeneous time resolved fluorescent (HTRF) detection.
inhibition at 3 µM [%],Molecule,% inh.
97,"O=C(O)c1cc(Oc2ccc(Nc3ccc(C(=O)C4CC4)cc3)c(C(=O)O)c2)ccc1Nc1ccc(F)cc1 [1:7, 5-[3-carboxy-4-(4-cyclopropane-carbonylphenylamino)phenyloxy]-2-(4-fluorophenylamino)benzene-carboxylic acid]",
,"O=C(Nc1ccc(Oc2ccc(NC(=O)c3ccc(Cl)c(Cl)c3)c(C(=O)O)c2)cc1C(=O)O)c1ccc(F)c(F)c1 [1:8, 5-[3-carboxy-4-(3,4-difluorobenz-amido)phenyloxy]-2-(3,4-dichloro-benzamido)benzoic acid]",99 (3 μM) %

# Same assay, conditions: total concentration of title compound in the assay 10 μM; HTRF method
Molecule,inhibition at 10 µM [%],% inh. [%]
"2-(2,3-dichlorobenzylamino)-5-{4-[(4-methoxybenzene-sulfonyl)methyl-amino]-phenoxy}benzoic acid [Example 11:12]",,92
2-[(2-Chloro-pyridine-3-carbonyl)-amino]-5-{4-[(4-methoxy-benzene-sulfonyl)methylamino]-phenoxy}benzoic acid [11:20],,76
5-{4-[(4-methoxybenzene-sulfonyl)methylamino]-phenoxy}-2-(4-trifluoromethyl-benzoylamino)benzoic acid [11:3],,98
"O=C(O)c1cc(Oc2ccc(Nc3ccc(F)c(F)c3)c(C(=O)O)c2)ccc1Nc1ccc(F)c(F)c1 [1:3, 3,3′-oxybis[6-(3,4-difluorophenyl-amino)benzoic acid]]",100,
"O=C(O)c1cc(Oc2ccc(Nc3ccc(F)c(F)c3)c(C(=O)O)c2)ccc1Nc1ccc(C(F)(F)F)nc1 [1:5, 5-[3-carboxy-4-(3,4-difluoro-phenylamino)phenyloxy]-2-(6-trifluoromethylpyridin-3-yl-amino)-benzoic acid]",99,
"O=C(O)c1cc(Oc2ccc(Nc3ccc([N+](=O)[O-])cc3)c(C(=O)O)c2)ccc1Nc1ccc(F)cc1 [1:6, 5-[3-carboxy-4-(4-nitrophenyl-amino)phenyloxy]-2-(4-fluoro-phenylamino)benzene-carboxylic acid]",100,
"O=C(Nc1ccc(Oc2ccc(NC(=O)c3cccc(Cl)c3)c(C(=O)O)c2)cc1C(=O)O)c1ccc(SC(F)(F)F)cc1 [2:1, 5-[3-carboxy-4-(4-(trifluoromethylthio)-benzamido)-phenyloxy]-2-(3-chlorobenz-amido)benzoic acid]",,98
"O=C(Nc1ccc(Oc2ccc(NC(=O)c3cc(Cl)ccc3F)c(C(=O)O)c2)cc1C(=O)O)c1cccc(Cl)c1 [2:2, 5-[3-carboxy-4-(3-chloro-6-fluorobenz-amido)phenyloxy]-2-(3-chlorobenz-amido)benzoic acid]",,100
"O=C(Nc1ccc(Oc2ccc(NC(=O)c3cc([N+](=O)[O-])ccc3Cl)c(C(=O)O)c2)cc1C(=O)O)c1cccc(Cl)c1 [2:4, 5-[3-carboxy-4-(3-nitro-6-chlorobenz-amido)-phenyloxy]-2-(3-chlorobenz-amido)benzoic acid]",,99
"CCCCc1ccc(C(=O)Nc2ccc(Oc3ccc(NC(=O)c4ccc(Cl)cc4Cl)c(C(=O)O)c3)cc2C(=O)O)cc1 [2:5, 5-[3-carboxy-4-(4-chloro-6-chloro-benzamido)-phenyloxy]-2-(4-butylbenz-amido)benzoic acid]",,100
"CCCCc1ccc(C(=O)Nc2ccc(Oc3ccc(NC(=O)c4cc(Cl)cc(Cl)c4)c(C(=O)O)c3)cc2C(=O)O)cc1 [2:6, 5-[3-carboxy-4-(3-chloro-5-chloro-benzamido)-phenyloxy]-2-(4-butylbenz-amido)benzoic acid]",,100
"CCCCc1ccc(C(=O)Nc2ccc(Oc3ccc(NC(=O)c4ccc(F)c(Cl)c4)c(C(=O)O)c3)cc2C(=O)O)cc1 [2:7, 5-[3-carboxy-4-(3-chloro-4-fluorobenz-amido)-phenyloxy]-2-(4-butylbenz-amido)benzoic acid]",,100
"CCCCc1ccc(C(=O)Nc2ccc(Oc3ccc(NC(=O)c4ccc(F)cc4Cl)c(C(=O)O)c3)cc2C(=O)O)cc1 [2:8, 5-[3-carboxy-4-(2-chloro-4-fluorobenz-amido)-phenyloxy]-2-(4-butylbenz-amido)benzoic acid]",,100
"O=C(Nc1ccc(Oc2ccc(NC(=O)c3ccc([N+](=O)[O-])cc3)c(C(=O)O)c2)cc1C(=O)O)c1ccc([N+](=O)[O-])cc1 [4:3, 5-[3-carboxy-4-(4-nitrobenzamido)phenyloxy]-2-(4-nitrobenzamido)benzoic acid]",97,
"O=C(Nc1ccc(Oc2ccc(NC(=O)c3cccc(Cl)c3)c(C(=O)O)c2)cc1C(=O)O)c1ccccc1 [5:3, 5-[3-carboxy-4-(3-chlorobenzamido)-phenyloxy]-2-benzamidobenzoic acid]",100,
"CCCCc1ccc(C(=O)Nc2ccc(Oc3ccc(NC(=O)c4ccc(Cl)cc4Cl)c(CC(=O)O)c3)cc2C(=O)O)cc1 [6:1, 2-(4-butyl-benzoyl-amino)-5-[3-carboxy-methyl-4-(2,4-dichloro-benzoylamino)phenoxy]-benzoic acid]",,99
"O=C(O)Cc1cc(Oc2ccc(NC(=O)c3ccc(C(F)(F)F)cc3F)c(C(=O)O)c2)ccc1NC(=O)c1cc(F)c(Cl)cc1F [6:5, 5-[3-carboxy-methyl-4-(4-chloro-2,5-difluoro-benzoylamino)-phenoxy]-2-(2-fluoro-4-trifluoro-methylbenzoylamino)-benzoic acid]",,96

# Further lines, with some results ahead:
inhibition at 10 µM [%],Molecule,% inh. [%]
98,"O=C(O)c1cc(Oc2ccc(Nc3cc(C(F)(F)F)ccc3Cl)c(C(=O)O)c2)ccc1Nc1ccc(F)c(F)c1 [1:1, 5-(3-carboxy-4-(2-chloro-5-trifluoromethylphenylamino)-phenyloxy)-2-(3,4-difluoro-phenylamino)benzoic acid]",
100,"O=C(O)c1cc(Oc2ccc(Nc3ccc4occc4c3)c(C(=O)O)c2)ccc1Nc1ccc(F)c(F)c1 [1:4, 5-[3-carboxy-4-(3,4-difluoro-phenylamino)phenyloxy]-2-(benzofuran-5-ylamino)benzoic acid]",
100,"O=C(Nc1ccc(Oc2ccc(NC(=O)c3cccc(Cl)c3)c(C(=O)O)c2)cc1C(=O)O)c1ccc([N+](=O)[O-])cc1 [2:3, 5-[3-carboxy-4-(4-nitrobenzamido)-phenyloxy]-2-(3-chlorobenzamido)benzoic acid]",
99,"N#Cc1ccc(C(=O)Nc2ccc(Oc3ccc(NC(=O)c4cccc(Cl)c4)c(C(=O)O)c3)cc2C(=O)O)cc1 [2:9, 5-[3-carboxy-4-(4-cyanobenzamido)-phenyloxy]-2-(3-chlorobenzamido)benzoic acid]",
65,"O=C(Nc1ccc(Oc2ccc([N+](=O)[O-])c(C(=O)O)c2)cc1C(=O)O)c1ccccc1 [3:1, 2-benzamido-5-(3-carboxy-4-nitrophenoxy)benzoic acid]",
86,"O=C(Nc1ccc(Oc2ccc([N+](=O)[O-])c(C(=O)O)c2)cc1C(=O)O)c1ccc(C(F)(F)F)cc1 [3:2, 2-nitro-5-[4-(4-trifluoromethyl-benzoylamino)-3-carboxy-phenoxy]benzoic acid]",
99,"CCCCc1ccc(C(=O)Nc2ccc(Oc3ccc(NC(=O)c4ccc(CCCC)cc4)c(C(=O)O)c3)cc2C(=O)O)cc1 [4:1, 5-[3-carboxy-4-(4-butyl-benzamido)phenyloxy]-2-(4-butylbenzamido)benzoic acid]",
93,"O=C(Nc1ccc(Oc2ccc(NC(=O)c3ccccc3)c(C(=O)O)c2)cc1C(=O)O)c1ccccc1 [4:2, 5-[3-carboxy-4-benzamido-phenyloxy]-2-benzamidobenzoic acid]",
99,"O=C(Nc1ccc(Oc2ccc(NC(=O)c3cccc(Cl)c3)c(C(=O)O)c2)cc1C(=O)O)c1cccc(Cl)c1 [4:4, 5-[3-carboxy-4-(3-chlorobenzamido)phenyloxy]-2-(3-chlorobenzamido)benzoic acid]",
100,"CCCCc1ccc(C(=O)Nc2ccc(Oc3ccc(NC(=O)c4ccccc4)c(C(=O)O)c3)cc2C(=O)O)cc1 [5:1, 5-[3-carboxy-4-(4-butylbenzamido)-phenyloxy]-2-benzamidobenzoic acid]",
99,"O=C(Nc1ccc(Oc2ccc(NC(=O)c3ccc([N+](=O)[O-])cc3)c(C(=O)O)c2)cc1C(=O)O)c1ccccc1 [5:2, 5-[3-carboxy-4-(4-nitrobenzamido)-phenyloxy]-2-benzamidobenzoic acid]",
98,"O=C(O)Cc1cc(Oc2ccc(NC(=O)c3ccc(C(F)(F)F)cc3F)c(C(=O)O)c2)ccc1NC(=O)c1cc(Cl)ccc1O [6:2, 5-[3-carboxymethyl-4-(5-chloro-2-hydroxybenzoylamino)-phenoxy]-2-(2-fluoro-4-trifluoromethyl-benzoylamino)benzoic acid]",
100,"CC(C)Oc1ccc(C(=O)Nc2ccc(Oc3ccc(NC(=O)c4cc(Cl)ccc4O)c(CC(=O)O)c3)cc2C(=O)O)cc1 [6:3, 5-[3-carboxymethyl-4-(5-chloro-2-hydroxybenzoylamino)phenoxy]-2-(4-isopropoxybenzoyl-amino)benzoic acid]",
96,"O=C(O)Cc1cc(Oc2ccc(NC(=O)c3ccc(C(F)(F)F)cc3F)c(C(=O)O)c2)ccc1NC(=O)c1cccc(Cl)c1 [6:4, 5-[3-carboxymethyl-4-(3-chloro-benzoylamino)-phenoxy]-2-(2-fluoro-4-trifluoromethylbenzoyl-amino)benzoic acid]",

# Reference: patent publication US20110071197A1, “BIS-ARYL COMPOUNDS FOR USE AS MEDICAMENTS” (priority 2008, published 2011)
